Laboratory results from patent publication US20030212123A1, “COX-2 selective carprofen for treating pain and inflammation in dogs” (Pfizer Inc., priority 1997, published 2003).
pIC50: −log10 of the molar value. Where two headings read alike, the source gives them in different places.

Columns and labels:
Format in all cases: cell-based, dog
canine COX-1 = biological target: T1, canine COX-1 (Canis lupus familiaris, UniProt Q8HZR1); assay: Canine COX-1 activity: washed canine platelets, A23187-stimulated TXB2 by EIA; details: results of repeated tests averaged
T1 construct: from tissue; host or cells: washed platelets from donor dog blood
T1 sequence (Q8HZR1 28-603): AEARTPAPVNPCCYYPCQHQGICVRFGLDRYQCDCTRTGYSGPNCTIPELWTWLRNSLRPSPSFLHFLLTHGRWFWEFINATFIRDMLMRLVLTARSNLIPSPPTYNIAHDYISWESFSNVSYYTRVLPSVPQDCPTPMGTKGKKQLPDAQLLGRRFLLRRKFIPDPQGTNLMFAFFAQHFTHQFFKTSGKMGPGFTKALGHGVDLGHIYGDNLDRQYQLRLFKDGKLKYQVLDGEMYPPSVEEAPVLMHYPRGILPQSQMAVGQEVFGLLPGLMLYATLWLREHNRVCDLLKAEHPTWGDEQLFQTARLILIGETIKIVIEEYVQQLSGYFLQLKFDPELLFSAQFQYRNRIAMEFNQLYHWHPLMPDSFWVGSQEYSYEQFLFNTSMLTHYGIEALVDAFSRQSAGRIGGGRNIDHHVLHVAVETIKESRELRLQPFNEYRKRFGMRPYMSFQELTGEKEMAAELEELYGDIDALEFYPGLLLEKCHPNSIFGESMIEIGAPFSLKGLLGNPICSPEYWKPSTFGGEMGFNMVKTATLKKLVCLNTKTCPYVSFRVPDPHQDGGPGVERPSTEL
Protocol: Protocol for Evaluation of Canine COX-1 Activity
Test drug compounds were solubilized and diluted the day before the assay was to be conducted with 0.1 mL of DMSO/9.9 mL of Hank's balanced salts solution (HBSS), and stored overnight at 4° C. On the day that the assay was carried out, citrated blood was drawn from a donor dog, centrifuged at 190×g for 25 min at room temperature, and the resulting platelet-rich plasma was then transferred to a new tube for further procedures. The platelets were washed by centrifuging at 1500×g for 10 min at room temperature. The platelets were washed with platelet buffer comprising Hank's buffer (Ca free) with 0.2% bovine serum albumin (BSA) and 20 mM HEPES. […] Then, 100 μl of canine washed platelets were added and the samples were incubated at 37° C. for 15 min, after which the reaction was stopped by adding 20 μl of 77 mM EDTA. The plates were then centrifuged at 2000×g for 10 min at […], after which 50 μl of supernatant was assayed for thromboxane B2 (TXB2) by enzyme-immunoassay (EIA).

canine COX-2 [1] = biological target: T2, canine COX-2 (Canis lupus familiaris, UniProt Q8SPQ9); assay: Canine COX-2 activity: LPS-treated DH82 canine histocytoma cells, PGE2 by EIA
T2 construct: host or cells: DH82 canine histocytoma cells, LPS-treated overnight
T2 sequence (Q8SPQ9 18-604): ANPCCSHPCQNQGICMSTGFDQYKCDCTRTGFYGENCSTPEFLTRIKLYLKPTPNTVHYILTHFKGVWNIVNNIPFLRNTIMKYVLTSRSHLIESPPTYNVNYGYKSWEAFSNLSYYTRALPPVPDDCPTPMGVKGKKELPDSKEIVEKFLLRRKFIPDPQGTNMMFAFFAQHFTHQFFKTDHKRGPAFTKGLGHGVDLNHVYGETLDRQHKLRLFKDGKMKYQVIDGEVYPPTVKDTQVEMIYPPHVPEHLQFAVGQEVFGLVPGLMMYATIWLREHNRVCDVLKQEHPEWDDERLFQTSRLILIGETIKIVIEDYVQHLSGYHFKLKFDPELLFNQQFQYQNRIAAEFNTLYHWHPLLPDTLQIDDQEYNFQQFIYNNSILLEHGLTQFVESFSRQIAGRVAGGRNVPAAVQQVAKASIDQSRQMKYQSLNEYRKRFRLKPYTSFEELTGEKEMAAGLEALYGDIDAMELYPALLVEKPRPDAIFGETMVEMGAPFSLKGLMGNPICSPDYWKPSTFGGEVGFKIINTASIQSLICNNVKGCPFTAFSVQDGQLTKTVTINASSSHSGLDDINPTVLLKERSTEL
Protocol: (§1) Protocol for Evaluation of Canine COX-2 Activity
(§2) A canine histocytoma (macrophage-like) cell line from the American Type Culture Collection designated as DH82, was used in setting up the protocol for evaluating the COX-2 inhibition activity of various test drug compounds. There was added to flasks of these cells 10 μg/mL of LPS, after which the flask cultures were incubated overnight. The same test drug compound dilutions as described above for the COX-1 protocol were used for the COX-2 assay and were prepared the day before the assay was carried out. […] The test sample suspensions were incubated for 1 hr and then centrifuged at 1000 rpm for 10 min at 4° C., after which 50 μl aliquots of each test drug sample were delivered to EIA plates. The EIA was performed for prostaglandin E2 (PGE2), and the pg/mL concentration of PGE2 was calculated from the standard line included on each plate. […] The results were averaged, and a single COX-1:COX-2 ratio was calculated.

canine COX-2 [2] = assay: as above
Protocol: as §1, §2

[3] = DH82 cells, PGE2, results of repeated tests averaged, read-out: COX-2 IC50
[4] = ratio of canine COX-1 IC50 to COX-2 IC50, higher = more COX-2 selective

Row | pIC50 (canine COX-1) | pIC50 (canine COX-2 [1]; [3]) | pIC50 (canine COX-2 [1]) | SMILES | COX-1/COX-2 Ratio (canine COX-2 [2]; [4]) | COX-1/COX-2 Ratio (canine COX-2 [2])
1 | 6.05 | – | – | Cc1cnc(NC(=O)C2=C(O)c3ccccc3S(=O)(=O)N2C)s1 [Meloxicam, 4-hydroxy-2-methyl-N-(5-methyl-2-thiazolyl)-2H-1,2-benzothiazine-3-carboxamide] | – | –
2 | 8.11 | 7.92 | – | Cc1c(Nc2ncccc2C(=O)O)cccc1C(F)(F)F [Flunixin, 2-{[2-methyl-3-(trifluoromethyl)-phenyl]amino}-3-pyridinecarboxylic acid; compounded with 1-deoxy-1-(methylamino)-D-glucitol(1:1)] | 0.635 | –
3 | 5.99 | 7.33 | – | O=C(O)c1cccnc1Nc1cccc(C(F)(F)F)c1 [Niflumic acid, 2-[3-(trifluoromethyl)anilino]nicotinic acid] | 22.2 | –
4 | 5.64 | 7.32 | – | O=C(O)c1ccccc1Nc1cccc(C(F)(F)F)c1 [Flufenamic acid, 2-{[3-(trifluoromethyl)phenyl]amino}-benzoic acid] | 48.6 | –
5 | 4.88 | 5.13 | – | C=CCOc1ccc(CC(=O)O)cc1Cl [Alclofenac, 3-chloro-4-(2-propenyloxy)-benzene acetic acid] | 1.78 | –
6 | – | 5.42 | – | CCCCC1C(=O)N(c2ccccc2)N(c2ccccc2)C1=O [Phenylbutazone, 4-butyl-1,2-diphenyl-3,5pyrazolidinedione] | – | –
7 | 6.30 | – | – | CC(C(=O)O)c1ccc(-c2ccccc2)c(F)c1 (stereo not drawn) [Flurbiprofen, 2-fluoro-α-methyl-[1,1′-biphenyl]-4-acetic acid] | – | –
8 | 5.88 | – | 5.59 | CCc1cccc2c3c([nH]c12)C(CC)(CC(=O)O)OCC3 (stereo not shown) [Etodolac, 1,8-diethyl-1,3,4,9-tetrahydro-pyrano[3,4-b]indole-1-acetic acid] | – | 0.517
9 | – | – | 7.25 | CS(=O)(=O)Nc1ccc([N+](=O)[O-])cc1Oc1ccccc1 [Nimesulide, 4′-nitro-2′-phenoxymethanesulfonanilide] | – | –
10 | 5.60 | 6.44 | – | O=C(O)Cc1ccc(-c2ccccc2)cc1 [Felbinac, [1,1′-biphenyl]-4-acetic acid] | 7.01 | –
11 | 6.13 | 7.32 | – | Cc1ccc(Cl)c(Nc2ccccc2C(=O)O)c1Cl [Meclofenamic acid, 2-[(2,6-dichloro-3-methylphenyl)amino]-benzoic acid] | 15.4 | –
12 | < 4.60 | – | 5.22 | C[C@@H](C(=O)O)c1ccc2c(c1)[nH]c1ccc(Cl)cc12 [Carprofen (R-)] | – | –
13 | 6.33 | 6.57 | – | NC(=O)N1C(=O)C(C(=O)c2cccs2)c2cc(F)c(Cl)cc21 (stereo not shown) [Ilonidap, 6-chloro-5-fluoro-2,3-dihydro-(hydroxy-2-thienylmethylene)-2-oxo-1H-indole-1-carboxamide] | 1.75 | –
14 | – | – | 6.20 | COc1ccc2cc(C(C)C(=O)O)ccc2c1 (stereo not drawn) [Naproxen, 6-methoxy-α-methyl-2-naphthaleneacetic acid] | – | –
15 | 6.69 | 7.86 | – | Cc1c(Cl)cccc1Nc1ccccc1C(=O)O [Tolfenamic acid, N-(3-chloro-o-tolyl)-anthranilic acid] | 15.0 | –
16 | 6.33 | – | – | NC(=O)N1C(=O)C(C(=O)c2cccs2)c2cc(Cl)ccc21 (stereo not shown) [Tenidap, 5-chloro-2,3-dihydro-3-(hydroxy-2-thienylmethylene)-2-oxo-1H-indole-1-carboxamide] | – | –
17 | 5.17 | – | 7.43 | C[C@H](C(=O)O)c1ccc2c(c1)[nH]c1ccc(Cl)cc12 [Carprofen (S-), (S)-6-chloro-α-methyl-carbazole-2-acetic acid] | – | –
18 | 6.23 | – | – | CS(=O)(=O)Nc1ccc([N+](=O)[O-])cc1OC1CCCCC1 [NS-398, N-[2-(cyclohexyloxy)-4-nitrophenyl]-methanesulfonamide] | – | –
19 | 6.65 | – | – | CN1C(C(=O)Nc2ccccn2)=C(O)c2ccccc2S1(=O)=O [Piroxicam, 4-hydroxyy-2-methyl-N-2-pyridinyl-2H-1,2-benzothiazine-3-carboxamide-1,1-dioxide] | – | –

Row | SMILES | pIC50 (canine COX-1) | pIC50 (canine COX-2 [1]; [3]) | pIC50 (canine COX-2 [1]) | COX-1/COX-2 Ratio (canine COX-2 [2]; [4]) | COX-1/COX-2 Ratio (canine COX-2 [2])
20 | CC(C(=O)O)c1cccc(C(=O)c2ccccc2)c1 (stereo not drawn) [Ketoprofen, 3-benzoyl-α-methyl-benzeneacetic acid] | – | – | 6.91 | – | –
21 | CC(=O)Oc1ccccc1C(=O)O [Aspirin, 2-(acetyloxy)-benzoic acid] | 4.46 | – | < 4.00 | <0.343 | –
22 | COc1ccc2cc(CC(=O)O)ccc2c1 [6-MNA, 6-methoxy-2-naphthyl-acetic acid] | 4.55 | 5.38 | – | 6.72 | –
23 | Cc1cccc(Nc2ccccc2C(=O)O)c1C [Mefenamic acid, 2-[(2,3-dimethylphenyl)amino]-benzoic acid] | 6.39 | – | 7.44 | 11.1 | –
